Earlier results, collected in patent publication US20090291465A1, “Screening Method for Identifying New Drugs” (FUNDACIÓ PRIVADA PARC CIENTÍFIC DE BARCELONA, priority 2006, published 2009).

What was measured:
[1] = limits its use to topical applications
[2] = tested on: isoleucyl-tRNA synthetases (IIeRS)

For `C/C(=C\C(=O)OCCCCCCCCC(=O)O)C[C@@H]1OC[C@H](C[C@@H]2O[C@H]2[C@@H](C)[C@H](C)O)[C@@H](O)[C@H]1O` [Pseudomonic acid], the systemic bioavailability [1] is given as “lack of systemic bioavailability” and the “selectivity for pathogen vs. mammalian IIeRS” value [2] is given as roughly 8000 fold.
